Reference: ChEMBL document CHEMBL4308841, “Synthesis, in vitro antiproliferative activity, and kinase inhibitory effects of pyrazole-containing diarylureas and diarylamides” (Eur J Med Chem, 2018)
pIC50: −log10 of the molar value.

Legend:
BT-549 = test: Growth inhibition of human BT549 cells assessed as cell growth at 0.1 uM incubated for 48 hrs by sulforhodamine B assay relative to control; format: functional; conditions: BT-549, 48 h, read-out: Activity
Hs-578T [1] = test: Growth inhibition of human Hs578T cells assessed as cell growth at 0.01 uM incubated for 48 hrs by sulforhodamine B assay relative to control; format: functional; conditions: read-out: Activity
Hs-578T [2] = test: Growth inhibition of human Hs578T cells assessed as cell growth at 100 uM incubated for 48 hrs by sulforhodamine B assay relative to control; format: functional; conditions: read-out: Activity
ACHN = test: Growth inhibition of human ACHN cells assessed as cell growth at 0.1 uM incubated for 48 hrs by sulforhodamine B assay relative to control; format: functional; conditions: read-out: Activity
NCI-H23 = test: Growth inhibition of human NCI-H23 cells assessed as cell growth at 0.1 uM incubated for 48 hrs by sulforhodamine B assay relative to control; format: functional; conditions: NCI-H23, 48 h, read-out: Activity
SF-539 = test: Growth inhibition of human SF539 cells assessed as cell growth at 0.1 uM incubated for 48 hrs by sulforhodamine B assay relative to control; format: functional; conditions: SF-539, 48 h, read-out: Activity
RPMI-8226 = test: Growth inhibition of human RPMI8226 cells assessed as cell growth at 100 uM incubated for 48 hrs by sulforhodamine B assay relative to control; format: functional; conditions: RPMI-8226, 48 h, read-out: Activity
RXF 393 [3] = test: Growth inhibition of human RXF393 cells incubated for 48 hrs by sulforhodamine B assay; format: functional, cell-based; conditions: RXF 393, 48 h
NCI-H522 [4] = test: Growth inhibition of human NCI-H522 cells assessed as cell growth at 100 uM incubated for 48 hrs by sulforhodamine B assay relative to control; format: functional; conditions: NCI-H522, 48 h, read-out: Activity
DU-145 = test: Growth inhibition of human DU145 cells assessed as cell growth at 1 uM incubated for 48 hrs by sulforhodamine B assay relative to control; format: functional; conditions: DU-145, 48 h, read-out: Activity
NCI-H522 [5] = test: Growth inhibition of human NCI-H522 cells assessed as cell growth at 0.01 uM incubated for 48 hrs by sulforhodamine B assay relative to control; format: functional; conditions: NCI-H522, 48 h, read-out: Activity
A549 = test: Growth inhibition of human A549/ATCC cells incubated for 48 hrs by sulforhodamine B assay; format: functional, cell-based; conditions: A549, 48 h
786-0 [6] = test: Growth inhibition of human 786-0 cells assessed as cell growth at 1 uM incubated for 48 hrs by sulforhodamine B assay relative to control; format: functional; conditions: 786-0, 48 h, read-out: Activity
U-251 = test: Growth inhibition of human U251 cells incubated for 48 hrs by sulforhodamine B assay; format: functional, cell-based; conditions: U-251, 48 h
RXF 393 [7] = test: Growth inhibition of human RXF393 cells assessed as cell growth at 0.01 uM incubated for 48 hrs by sulforhodamine B assay relative to control; format: functional; conditions: RXF 393, 48 h, read-out: Activity
SK-OV-3 [8] = test: Growth inhibition of human SKOV3 cells assessed as cell growth at 0.01 uM incubated for 48 hrs by sulforhodamine B assay relative to control; format: functional; conditions: SK-OV-3, 48 h, read-out: Activity
SK-OV-3 [9] = test: Growth inhibition of human SKOV3 cells assessed as cell growth at 1 uM incubated for 48 hrs by sulforhodamine B assay relative to control; format: functional; conditions: SK-OV-3, 48 h, read-out: Activity
NCI-H460 = test: Growth inhibition of human NCI-H460 cells incubated for 48 hrs by sulforhodamine B assay; format: functional, cell-based; conditions: NCI-H460, 48 h
HCT-15 = test: Growth inhibition of human HCT15 cells assessed as cell growth at 0.01 uM incubated for 48 hrs by sulforhodamine B assay relative to control; format: functional; conditions: HCT-15, 48 h, read-out: Activity
SNB-75 = test: Growth inhibition of human SNB75 cells incubated for 48 hrs by sulforhodamine B assay; format: functional, cell-based; conditions: SNB-75, 48 h
SK-MEL-2 = test: Growth inhibition of human SK-MEL-2 cells assessed as cell growth at 0.01 uM incubated for 48 hrs by sulforhodamine B assay relative to control; format: functional; conditions: SK-MEL-2, 48 h, read-out: Activity
COLO 205 = test: Growth inhibition of human COLO205 cells assessed as cell growth at 0.01 uM incubated for 48 hrs by sulforhodamine B assay relative to control; format: functional; conditions: COLO 205, 48 h, read-out: Activity
SW-620 = test: Growth inhibition of human SW620 cells assessed as cell growth at 100 uM incubated for 48 hrs by sulforhodamine B assay relative to control; format: functional; conditions: SW-620, 48 h, read-out: Activity
HL-60(TB) = test: Growth inhibition of human HL-60(TB) cells assessed as cell growth at 0.1 uM incubated for 48 hrs by sulforhodamine B assay relative to control; format: functional; conditions: HL-60, 48 h, read-out: Activity
A498 = test: Growth inhibition of human A498 cells incubated for 48 hrs by sulforhodamine B assay; format: functional, cell-based; conditions: A498, 48 h
RXF 393 [10] = test: Growth inhibition of human RXF393 cells assessed as cell growth at 0.1 uM incubated for 48 hrs by sulforhodamine B assay relative to control; format: functional; conditions: RXF 393, 48 h, read-out: Activity
786-0 [11] = test: Growth inhibition of human 786-0 cells incubated for 48 hrs by sulforhodamine B assay; format: functional, cell-based; conditions: 786-0, 48 h
UO-31 = test: Growth inhibition of human UO31 cells incubated for 48 hrs by sulforhodamine B assay; format: functional, cell-based; conditions: UO-31, 48 h
[12] = read-out: LC50 (the source's name)
[13] = read-out: pLC50 (the source's name) (converted)

## COc1cc(Cl)cc(-c2nn(-c3cccc(NC(=O)Nc4ccc(Cl)c(Cl)c4)c3)cc2-c2ccncc2)c1
BT-549
  growth at 0.1 µM: 98%
Hs-578T [1]
  growth at 0.01 µM: 93%
Hs-578T [2]
  growth at 100 µM: 28%
ACHN
  growth at 0.1 µM: 96%
NCI-H23
  growth at 0.1 µM: 93%
SF-539
  growth at 0.1 µM: 92%
RPMI-8226
  growth at 100 µM: -34%
RXF 393 [3]
  LC50: > 100 µM
RXF 393 [3]; read-out: GI50
  GI50: 1.96 µM
RXF 393 [3]; read-out: TGI
  TGI: 72.5 µM
RXF 393 [3]; read-out: pGI50 (converted)
  GI50: 1.95 µM
RXF 393 [3]; read-out: pTGI (converted)
  TGI: 7.24 µM
NCI-H522 [4]
  growth at 100 µM: -15%
DU-145
  growth at 1 µM: 93%
NCI-H522 [5]
  growth at 0.01 µM: 95%
A549
  pIC50: 5.83
A549; read-out: GI50
  GI50: 1.48 µM
A549; [12]
  CC50: > 100 µM
A549; read-out: TGI
  TGI: 15.3 µM
A549; read-out: pGI50 (converted)
  GI50: 1.48 µM
A549; [13]
  CC50: > 100 µM
A549; read-out: pTGI (converted)
  TGI: 15.5 µM
786-0 [6]
  growth at 1 µM: 84%
U-251
  pIC50: 5.77
U-251; read-out: GI50
  GI50: 1.7 µM
U-251; [12]
  CC50: 4.16 µM
U-251; read-out: TGI
  TGI: 60.3 µM
U-251; read-out: pGI50 (converted)
  GI50: 1.7 µM
U-251; [13]
  CC50: 41.7 µM
U-251; read-out: pTGI (converted)
  TGI: 6.03 µM
RXF 393 [7]
  growth at 0.01 µM: 100%
SK-OV-3 [8]
  growth at 0.01 µM: 100%
SK-OV-3 [9]
  growth at 1 µM: 100%
NCI-H460; read-out: GI50
  GI50: 2.27 µM
NCI-H460; [12]
  CC50: > 100 µM
NCI-H460; read-out: TGI
  TGI: 13.9 µM
NCI-H460; read-out: pGI50 (converted)
  GI50: 2.29 µM
NCI-H460; [13]
  CC50: > 100 µM
NCI-H460; read-out: pTGI (converted)
  TGI: 13.8 µM
HCT-15
  growth at 0.01 µM: 93%
SNB-75; read-out: GI50
  GI50: 2.11 µM
SNB-75; [12]
  CC50: > 100 µM
SNB-75; read-out: TGI
  TGI: 45.6 µM
SNB-75; read-out: pGI50 (converted)
  GI50: 2.14 µM
SNB-75; [13]
  CC50: > 100 µM
SNB-75; read-out: pTGI (converted)
  TGI: 49 µM
SK-MEL-2
  growth at 0.01 µM: 96%
COLO 205
  growth at 0.01 µM: 99%
SW-620
  growth at 100 µM: 7%
HL-60(TB)
  growth at 0.1 µM: 93%
A498; read-out: GI50
  GI50: 2.52 µM
A498; [12]
  CC50: > 100 µM
A498; read-out: TGI
  TGI: 90.9 µM
A498; read-out: pGI50 (converted)
  GI50: 2.51 µM
A498; [13]
  CC50: > 100 µM
A498; read-out: pTGI (converted)
  TGI: 91.2 µM
RXF 393 [10]
  growth at 0.1 µM: 101%
786-0 [11]; read-out: GI50
  GI50: 2.31 µM
786-0 [11]; [12]
  CC50: > 100 µM
786-0 [11]; read-out: TGI
  TGI: 75.4 µM
786-0 [11]; read-out: pGI50 (converted)
  GI50: 2.29 µM
786-0 [11]; [13]
  CC50: > 100 µM
786-0 [11]; read-out: pTGI (converted)
  TGI: 7.76 µM
UO-31
  pIC50: 5.72
UO-31; read-out: GI50
  GI50: 1.59 µM
UO-31; [12]
  CC50: > 100 µM
UO-31; read-out: TGI
  TGI: 15.2 µM
UO-31; read-out: pGI50 (converted)
  GI50: 1.91 µM
UO-31; [13]
  CC50: > 100 µM
UO-31; read-out: pTGI (converted)
  TGI: 18.2 µM
